Experimental data published in US10953027B2, “Active agents and methods of their use for the treatment of metabolic disorders and nonalcoholic fatty liver disease” (Flagship Pioneering Innovations V, Inc., priority 2018, dated 2021).

Experiments:
Assay type in all cases: in vitro ADME
[1] = Assay 1. Stability in Simulated Gastric Fluid (SGF); conditions: 1 μM, 37° C., SGF pH 1.6 with pepsin
Procedure, shortened: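 Simulated gastric fluid, prepared fresh as NaCl buffer at pH 1.6 with 0.1 mg/mL pepsin and FaSSIF powder, received test compound to 1 μM final and was held at 37 °C. LC/MS of acetonitrile-quenched samples, taken immediately and then periodically, gave degradation rates.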

[2] = Assay 2. Stability in Simulated Intestinal Fluid (SIF); conditions: 1 μM, 37° C., SIF pH 6.7 with pancreatin
Procedure, shortened: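 Degradation rate measured by LC/MS after acetonitrile quench of timed aliquots, starting at T0. Test compound 1 μM in simulated intestinal fluid (pH 6.7 phosphate buffer, FaSSIF powder, pancreatin), shaken at 37 °C.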

[3] = Assay 3. Fecal Incubation Stability; conditions: 1 or 10 μM, human fecal slurry, anaerobic
Description: Assay 3. Fecal Incubation Stability. This assay was used to assess the stability of an acylated active agent in a large intestine. All experiments were performed in an anaerobic chamber containing 90% nitrogen, 5% hydrogen and 5% carbon dioxide. Human fecal matter in a slurry (15% WV) is added to 96 well plates containing YCFA media or other suitable media (1.6 mL). Compounds were added to each individual well to reach a final analyte concentration of 1 or 10 μM, and the material was mixed by pipetting. At set time points a sample was removed, quenched with acetonitrile, and analyzed by LC/MS.

Row | Compound | Assay 1 (SGF) (% Remaining @ 1 hours) [1] | Assay 2 (SIF) (% @ Remaining 4 hours) [2] | Assay 3 (% Remaining at 24 h) [3]
1 | CCC(=O)O[C@@H]1[C@@H](OC(=O)CC)[C@H](OC)OC[C@H]1OC(=O)CC [Compound 106, (2R,3R,4S,5R)-2-methoxy-4,5-bis(propanoyloxyoxan-3-yl Propanoate] | C (C: >75% of the tested compound remaining) | A (A: <25% of the tested compound remaining) | A (A: <25% of the tested compound remaining)
2 | CCC(=O)O[C@@H]1[C@@H](OC(=O)CC)[C@H](OC(=O)Cc2c[nH]c3ccccc23)OC[C@@H]1OC(=O)CC [Compound 135, (3S,4S,5R,6S)-6-{[2-(1H-indol-3-yl)acetyl]oxy}-4,5-bis(propanoyloxy)oxan-3-yl Propanoate] | C (C: >75% of the tested compound remaining) | A (A: <25% of the tested compound remaining) | A (A: <25% of the tested compound remaining)
3 | CCCC(=O)O[C@@H]1[C@@H](OC(=O)CCC)[C@@H](OC(=O)CCc2c[nH]c3ccccc23)OC[C@H]1OC(=O)CCC [Compound 128, (2R,3R,4S,5R)-4,5-bis(butanoyloxy)-2-{[3-(1H-indol-3-yl)propanoyl]oxy}oxan-3-yl Butanoate] | C (C: >75% of the tested compound remaining) | A (A: <25% of the tested compound remaining) | A (A: <25% of the tested compound remaining)
4 | CCC(=O)OC[C@H]1O[C@@H](OC(=O)Cc2c[nH]c3ccccc23)[C@H](OC(=O)CC)[C@@H](OC(=O)CC)[C@@H]1OC(=O)CC [Compound 143, [(2R,3R,4S,5R,6S)-6-{[2-(1H-indol-3-yl)acetyl]oxy}-3,4,5-tris(propanoyloxy)oxan-2-yl]methyl Propanoate] | C (C: >75% of the tested compound remaining) | A (A: <25% of the tested compound remaining) | A (A: <25% of the tested compound remaining)
5 | CC(=O)O[C@@H]1[C@H](OC(C)=O)C=C(C(=O)O)C[C@H]1OC(C)=O [Compound 43, (3R,4S,5R)-3,4,5-triacetoxycyclohex-1-ene-1-carboxylic Acid] | C (C: >75% of the tested compound remaining) | C (C: >75% of the tested compound remaining) | B (B: 25-75% of the tested compound remaining)
6 | CCC(=O)O[C@@H]1[C@H](OC(=O)CC)COC(O)[C@@H]1OC(=O)CC (stereo partly drawn) [Compound 137, (3R,4R,5R)-2-hydroxy-4,5-bis(propanoyloxy)oxan-3-yl Propanoate] | C (C: >75% of the tested compound remaining) | B (B: 25-75% of the tested compound remaining) | B (B: 25-75% of the tested compound remaining)
7 | CCCC(=O)O[C@H]1[C@H](OC)OC[C@@H](OC(=O)CCC)[C@H]1OC(=O)CCC [Compound 83, (2R,3R,4R,5R)-3,5-bis(butanoyloxy)-2-methoxyoxan-4-yl Butanoate] | C (C: >75% of the tested compound remaining) | A (A: <25% of the tested compound remaining) | A (A: <25% of the tested compound remaining)
8 | CCC(=O)OC[C@H]1O[C@H](OC)[C@H](OC(=O)CC)[C@@H](OC(=O)CC)[C@@H]1OC(=O)CC [Compound 88, [(2R,3R,4S,5R,6S)-6-methoxy-3,4,5-tris(propanoyloxy)oxan-2-yl]methyl Propanoate] | C (C: >75% of the tested compound remaining) | A (A: <25% of the tested compound remaining) | A (A: <25% of the tested compound remaining)
9 | CCCC(=O)O[C@@H]1[C@@H](OC(=O)CCC)[C@H](C)O[C@@H](OC(=O)CCc2c[nH]c3ccccc23)[C@@H]1OC(=O)CCC [Compound 116, (2S,3R,4R,5S,6S)-4,5-bis(butanoyloxy)-2-{[3-(1H-indol-3-yl)propanoyl]oxy}-6-methyloxan-3-yl Butanoate] | C (C: >75% of the tested compound remaining) | A (A: <25% of the tested compound remaining) | A (A: <25% of the tested compound remaining)
10 | CCC(=O)O[C@H]1[C@H](OC(=O)/C=C/c2c[nH]c3ccccc23)OC[C@@H](OC(=O)CC)[C@H]1OC(=O)CC [Compound 124, (2S,3R,4R,5R)-3,4,5-tris(propanoyloxy)oxan-2-yl (2E)-3-(1H-indol-3-yl)prop-2-enoate] | C (C: >75% of the tested compound remaining) | A (A: <25% of the tested compound remaining) | A (A: <25% of the tested compound remaining)
11 | CCC(=O)O[C@@H]1[C@@H](OC(=O)CC)[C@@H](OC(=O)/C=C/c2c[nH]c3ccccc23)OC[C@H]1OC(=O)CC [Compound 125, (2R,3R,4S,5R)-3,4,5-tris(propanoyloxy)oxan-2-yl (2E)-3-(1H-indol-3-yl)prop-2-enoate] | C (C: >75% of the tested compound remaining) | A (A: <25% of the tested compound remaining) | A (A: <25% of the tested compound remaining)
12 | CO[C@H]1OC[C@@H](OC(C)=O)[C@H](OC(C)=O)[C@H]1OC(C)=O [Compound 46, (2S,3R,4S,5R)-2-methoxytetrahydro-2H-pyran-3,4,5-triyl Triacetate] | C (C: >75% of the tested compound remaining) | B (B: 25-75% of the tested compound remaining) | B (B: 25-75% of the tested compound remaining)
13 | CCCC(=O)O[C@H]1[C@H](OC(=O)CCC)[C@H](OC(=O)CCc2c[nH]c3ccccc23)O[C@@H](C)[C@H]1OC(=O)CCC [Compound 117, (2S,3S,4R,5R,6S)-4,5-bis(butanoyloxy)-2-{[3-(1H-indol-3-yl)propanoyl]oxy}-6-methyloxan-3-yl Butanoate] | C (C: >75% of the tested compound remaining) | A (A: <25% of the tested compound remaining) | A (A: <25% of the tested compound remaining)
14 | CCC(=O)O[C@H]1[C@H](OC(=O)CCc2c[nH]c3ccccc23)OC[C@@H](OC(=O)CC)[C@H]1OC(=O)CC [Compound 130, (2S,3R,4R,5R)-3,4,5-tris(propanoyloxy)oxan-2-yl 3-(1H-indol-3-yl)propanoate] | B (B: 25-75% of the tested compound remaining) | A (A: <25% of the tested compound remaining) | A (A: <25% of the tested compound remaining)
15 | O=C(Cc1c[nH]c2ccccc12)O[C@H]1OC[C@H](OC(=O)Cc2c[nH]c3ccccc23)[C@H](OC(=O)Cc2c[nH]c3ccccc23)[C@H]1OC(=O)Cc1c[nH]c2ccccc12 [Compound 180, (2R,3R,4S,5S)-3,4,5-tris({[2-(1H-indol-3-yl)acetyl]oxy})oxan-2-yl 2-(1H-indol-3-yl)acetate] | B (B: 25-75% of the tested compound remaining) | A (A: <25% of the tested compound remaining) | A (A: <25% of the tested compound remaining)
16 | CC(=O)O[C@H]1O[C@H](C(=O)O)[C@@H](OC(C)=O)[C@H](OC(C)=O)[C@H]1OC(C)=O [Compound 195, (2S,3S,4S,5R,6R)-3,4,5,6-tetraacetoxytetrahydro-2H-pyran-2-carboxylic Acid] | C (C: >75% of the tested compound remaining) | C (C: >75% of the tested compound remaining) | B (B: 25-75% of the tested compound remaining)
17 | CCC(=O)O[C@@H]1O[C@@H](C)[C@H](OC(=O)CC)[C@@H](OC(=O)CC)[C@H]1OC(=O)CC [Compound 111, (2S,3R,4R,5S,6S)-6-methyl-3,4,5-tris(propanoyloxy)oxan-2-yl propanoate] | B (B: 25-75% of the tested compound remaining) | A (A: <25% of the tested compound remaining) | A (A: <25% of the tested compound remaining)
18 | CO[C@@H]1OC[C@@H](OC(C)=O)[C@H](OC(C)=O)[C@H]1OC(C)=O [Compound 45, (2R,3R,4S,5R)-2-methoxytetrahydro-2H-pyran-3,4,5-triyl Triacetate] | C (C: >75% of the tested compound remaining) | B (B: 25-75% of the tested compound remaining) | B (B: 25-75% of the tested compound remaining)
19 | CCC(=O)O[C@@H]1[C@@H](OC(=O)CC)[C@H](C)O[C@@H](OC(=O)Cc2c[nH]c3ccccc23)[C@@H]1OC(=O)CC [Compound 147, (2S,3R,4R,5S,6S)-2-{[2-(1H-indol-3-yl)acetyl]oxy}-6-methyl-4,5-bis(propanoyloxy)oxan-3-yl Propanoate] | C (C: >75% of the tested compound remaining) | A (A: <25% of the tested compound remaining) | A (A: <25% of the tested compound remaining)
